From patent US9884063B2, “Amido-substituted azole compounds” (Bayer Pharma Aktiengesellschaft, priority 2014, dated 2018)
pIC50: −log10 of the molar value.

molecular target: T1, TNKS1 (Homo sapiens, UniProt O95271); test: Modified TNKS1 Assay 2 (auto-parsylation, [3H]-NAD+ SPA); format: biochemical; conditions: 6 nM TNKS1, 96 well
T1 sequence (O95271 1-1327): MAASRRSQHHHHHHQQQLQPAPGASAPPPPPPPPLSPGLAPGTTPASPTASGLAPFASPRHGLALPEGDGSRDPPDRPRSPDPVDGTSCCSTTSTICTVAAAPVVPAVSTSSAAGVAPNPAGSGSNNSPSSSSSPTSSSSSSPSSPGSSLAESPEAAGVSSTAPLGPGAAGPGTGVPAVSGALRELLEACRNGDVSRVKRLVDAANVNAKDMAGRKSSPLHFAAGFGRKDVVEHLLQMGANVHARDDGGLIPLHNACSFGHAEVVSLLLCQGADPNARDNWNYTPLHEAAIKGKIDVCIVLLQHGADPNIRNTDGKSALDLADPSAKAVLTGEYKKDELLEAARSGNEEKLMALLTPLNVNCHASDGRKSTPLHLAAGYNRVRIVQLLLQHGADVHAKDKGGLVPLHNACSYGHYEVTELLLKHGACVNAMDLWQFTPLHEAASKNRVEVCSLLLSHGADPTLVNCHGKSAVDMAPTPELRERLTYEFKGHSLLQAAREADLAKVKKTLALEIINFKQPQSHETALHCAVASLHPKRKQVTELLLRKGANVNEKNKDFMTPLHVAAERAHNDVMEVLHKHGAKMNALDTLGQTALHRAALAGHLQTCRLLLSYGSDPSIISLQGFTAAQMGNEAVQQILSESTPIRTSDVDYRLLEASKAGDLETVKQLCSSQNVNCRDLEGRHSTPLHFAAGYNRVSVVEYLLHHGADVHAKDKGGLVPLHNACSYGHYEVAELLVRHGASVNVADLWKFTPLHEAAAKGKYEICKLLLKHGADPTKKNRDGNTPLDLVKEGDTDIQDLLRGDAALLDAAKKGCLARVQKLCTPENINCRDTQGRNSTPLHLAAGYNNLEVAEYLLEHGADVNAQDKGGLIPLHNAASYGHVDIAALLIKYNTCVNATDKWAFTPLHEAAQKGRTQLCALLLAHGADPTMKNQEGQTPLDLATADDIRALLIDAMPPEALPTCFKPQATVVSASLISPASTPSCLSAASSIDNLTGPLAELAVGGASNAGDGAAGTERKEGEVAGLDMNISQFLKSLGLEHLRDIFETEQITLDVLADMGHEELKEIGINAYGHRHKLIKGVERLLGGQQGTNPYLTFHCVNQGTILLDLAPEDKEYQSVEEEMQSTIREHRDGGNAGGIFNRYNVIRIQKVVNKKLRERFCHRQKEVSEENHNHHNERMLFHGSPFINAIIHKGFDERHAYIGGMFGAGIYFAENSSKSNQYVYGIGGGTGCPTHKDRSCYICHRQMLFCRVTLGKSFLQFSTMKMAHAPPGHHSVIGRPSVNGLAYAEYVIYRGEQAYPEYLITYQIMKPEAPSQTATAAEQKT

Row | SMILES | pIC50
1 | COC(=O)c1nc[nH]c1C(=O)Nc1ccc(NC(=O)c2ccccc2Cl)c(C)c1 [Example 86, methyl-5-({4-[(2-chlorobenzoyl)amino]-3-methylphenyl}carbamoyl)-1H-imidazole-4-carboxylate] | 5.59
2 | Cc1cc(NC(=O)c2[nH]cnc2C(=O)NCCN2CCCCC2)ccc1NC(=O)c1ccccc1Cl [Example 89, N^5-{4-[(2-chlorobenzoyl)amino]-3-methylphenyl}-N^4-[2-(piperidin-1-yl)ethyl]-1H-imidazole-4,5-dicarboxamide] | 7.52
3 | COC(=O)c1nc[nH]c1C(=O)Nc1ccc(NC(=O)c2ccc(F)cc2Cl)c(OC)c1 [Example 94, methyl 5-({4-[(2-chloro-4-fluorobenzoyl)amino]-3-methoxyphenyl}carbamoyl)-1H-imidazole-4-carboxylate] | 6.36
4 | CNC(=O)c1nc[nH]c1C(=O)Nc1ccc(NC(=O)c2ccc(F)cc2Cl)c(OC)c1 [Example 95, N^5-{4-[(2-chloro-4-fluorobenzoyl)amino]-3-methoxyphenyl}-N^4-methyl-1H-imidazole-4,5-dicarboxamide] | 7.10
5 | COc1cc(NC(=O)c2[nH]cnc2C(=O)NCCN(C)C)ccc1NC(=O)c1ccc(F)cc1Cl [Example 96, N^5-{4-[(2-chloro-4-fluorobenzoyl)amino]-3-methoxyphenyl}-N^4-[2-(dimethylamino)ethyl]-1H-imidazole-4,5-dicarboxamide] | 7.52
6 | COc1cc(NC(=O)c2[nH]cnc2C(=O)NCCN2CCCCC2)ccc1NC(=O)c1ccc(F)cc1Cl [Example 97, N^5-{4-[(2-chloro-4-fluorobenzoyl)amino]-3-methoxyphenyl}-N^4-[2-(piperidin-1-yl)ethyl]-1H-imidazole-4,5-dicarboxamide] | 7.22
7 | COC(=O)c1nc[nH]c1C(=O)Nc1ccc(NC(=O)c2ccccc2Cl)c(OC)c1 [Example 98, methyl 5-({4-[(2-chlorobenzoyl)amino]-3-methoxyphenyl}carbamoyl)-1H-imidazole-4-carboxylate] | 6.47
8 | COc1cc(NC(=O)c2[nH]cnc2C(=O)NCCN(C)C)ccc1NC(=O)c1ccccc1Cl [Example 100, N^5-{4-[(2-chlorobenzoyl)amino]-3-methoxyphenyl}-N^4-[2-(dimethylamino)ethyl]-1H-imidazole-4,5-dicarboxamide] | 7.30
9 | COC(=O)c1nc[nH]c1C(=O)Nc1ccc(NC(=O)c2ccc(F)cc2)c(OC)c1 [Example 102, methyl 5-({4-[(4-fluorobenzoyl)amino]-3-methoxyphenyl}carbamoyl)-1H-imidazole-4-carboxylate] | < 5.00
10 | CNC(=O)c1[nH]c(C(C)C)nc1C(=O)Nc1ccc(NC(=O)c2ccc(F)cc2Cl)cc1 [Example 106, N^4-{4-[(2-chloro-4-fluorobenzoyl)amino]phenyl}-2-isopropyl-N^5-methyl-1H-imidazole-4,5-dicarboxamide] | < 5.00
11 | CNC(=O)c1nc[nH]c1C(=O)Nc1ccc(NC(=O)c2ccccc2Cl)nc1 [Example 112, N^5-{6-[(2-chlorobenzoyl)amino]pyridin-3-yl}-N^4-methyl-1H-imidazole-4,5-dicarboxamide] | 6.60
12 | CN(C)CCNC(=O)c1nc[nH]c1C(=O)Nc1ccc(NC(=O)c2ccccc2Cl)nc1 [Example 113, N^5-{6-[(2-chlorobenzoyl)amino]pyridin-3-yl}-N^4-[2-(dimethylamino)ethyl]-1H-imidazole-4,5-dicarboxamide] | 7.70
